ChEMBL document CHEMBL1201862, “PubChem BioAssay data set” (2004)
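Cultured in 96-well plates, cells were exposed to test compound for 48 hours across five concentrations. At the GI50, growth is halved.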 Active and inactive are the calls of the source. Rule as the data show it: active = GI50 up to about 1.1 µM and inactive = higher.

Key:
Test in all cases: inhibition of tumour cell growth, NCI panel, 48 h
[1] = system: 786-0
[2] = system: A498
[3] = system: COLO 205
[4] = system: DU-145
[5] = system: EKVX
[6] = system: HCC 2998
[7] = system: Hs-578T
[8] = system: MDA-MB-231
[9] = system: MOLT-4
[10] = system: NCI-H226
[11] = system: OVCAR-3
[12] = system: OVCAR-4
[13] = system: OVCAR-8
[14] = system: RPMI-8226
[15] = system: SF-295
[16] = system: SK-MEL-5
[17] = system: SNB-19
[18] = system: TK-10
[19] = system: UACC-62
[20] = system: RXF 393

## N#C/C(N)=C(C#N)/N=C/Nc1ccc(N)cc1
[1]
  GI50: > 100 µM (inactive)
[2]
  GI50: > 100 µM (inactive)
[3]
  GI50: > 100 µM (inactive)
[4]
  GI50: > 100 µM (inactive)
[5]
  GI50: > 100 µM (inactive)
[6]
  GI50: > 100 µM (inactive)
[7]
  GI50: 95.3 µM (inactive)
[8]
  GI50: > 100 µM (inactive)
[9]
  GI50: > 100 µM (inactive)
[10]
  GI50: > 100 µM (inactive)
[11]
  GI50: > 100 µM (inactive)
[12]
  GI50: > 100 µM (inactive)
[13]
  GI50: > 100 µM (inactive)
[14]
  GI50: > 100 µM (inactive)
[15]
  GI50: > 100 µM (inactive)
[16]
  GI50: 29.2 µM (inactive)
[17]
  GI50: > 100 µM (inactive)
[18]
  GI50: > 100 µM (inactive)
[19]
  GI50: > 100 µM (inactive)

## CN1C2CCC1C(C(O)c1ccccc1[N+](=O)[O-])C(=O)C2 (configuration not stated)
[1]
  GI50: 44 µM (inactive)
[2]
  GI50: > 100 µM (inactive)
[3]
  GI50: 34.6 µM (inactive)
[4]
  GI50: 28.3 µM (inactive)
[5]
  GI50: > 100 µM (inactive)
[6]
  GI50: > 100 µM (inactive)
[7]
  GI50: 53.2 µM (inactive)
[8]
  GI50: 64 µM (inactive)
[9]
  GI50: 47.4 µM (inactive)
[10]
  GI50: 24.2 µM (inactive)
[11]
  GI50: 34.7 µM (inactive)
[12]
  GI50: 77.3 µM (inactive)
[13]
  GI50: 31.6 µM (inactive)
[14]
  GI50: 40.8 µM (inactive)
[15]
  GI50: 58.1 µM (inactive)
[16]
  GI50: 31.1 µM (inactive)
[17]
  GI50: > 100 µM (inactive)
[18]
  GI50: > 100 µM (inactive)
[19]
  GI50: > 100 µM (inactive)

## CC(=O)OCCn1cnc2nc(Nc3ccccc3)nc(Cl)c21
[1]
  GI50: > 100 µM (inactive)
[2]
  GI50: > 100 µM (inactive)
[3]
  GI50: 47.5 µM (inactive)
[4]
  GI50: > 100 µM (inactive)
[5]
  GI50: > 100 µM (inactive)
[6]
  GI50: 74.5 µM (inactive)
[7]
  GI50: > 100 µM (inactive)
[8]
  GI50: 38.1 µM (inactive)
[9]
  GI50: 54.2 µM (inactive)
[10]
  GI50: > 100 µM (inactive)
[11]
  GI50: > 100 µM (inactive)
[12]
  GI50: 43.3 µM (inactive)
[13]
  GI50: > 100 µM (inactive)
[14]
  GI50: 89.5 µM (inactive)
[15]
  GI50: 82 µM (inactive)
[16]
  GI50: 60.8 µM (inactive)
[17]
  GI50: > 100 µM (inactive)
[18]
  GI50: > 100 µM (inactive)
[19]
  GI50: 44.1 µM (inactive)

## CCCNC(=S)N/N=C/c1cccc(C)n1
[1]
  GI50: 26 µM (inactive)
[2]
  GI50: 33 µM (inactive)
[3]
  GI50: 3.94 µM (inactive)
[5]
  GI50: 30.9 µM (inactive)
[6]
  GI50: 19.5 µM (inactive)
[7]
  GI50: > 100 µM (inactive)
[8]
  GI50: 33.7 µM (inactive)
[9]
  GI50: 16.8 µM (inactive)
[10]
  GI50: 19.8 µM (inactive)
[11]
  GI50: 2.91 µM (inactive)
[12]
  GI50: 39.4 µM (inactive)
[13]
  GI50: 28 µM (inactive)
[14]
  GI50: 24.3 µM (inactive)
[20]
  GI50: 28.1 µM (inactive)
[15]
  GI50: 32.8 µM (inactive)
[16]
  GI50: 31.7 µM (inactive)
[18]
  GI50: 65.8 µM (inactive)
[19]
  GI50: 20.8 µM (inactive)

## O=C1Nc2c(Cl)cc(Cl)cc2/C1=N/NC(=O)c1ccccc1O
[1]
  GI50: 12.8 µM (inactive)
[2]
  GI50: 16.5 µM (inactive)
[3]
  GI50: 22.3 µM (inactive)
[5]
  GI50: 13.2 µM (inactive)
[6]
  GI50: 16.7 µM (inactive)
[7]
  GI50: 14.8 µM (inactive)
[8]
  GI50: 15.6 µM (inactive)
[9]
  GI50: 10 µM (inactive)
[10]
  GI50: 14.8 µM (inactive)
[11]
  GI50: 11.2 µM (inactive)
[12]
  GI50: 13.4 µM (inactive)
[13]
  GI50: 12.3 µM (inactive)
[20]
  GI50: 12.2 µM (inactive)
[15]
  GI50: 14.9 µM (inactive)
[16]
  GI50: 14.8 µM (inactive)
[17]
  GI50: 14.4 µM (inactive)
[18]
  GI50: 15.2 µM (inactive)
[19]
  GI50: 12.1 µM (inactive)

## Cc1ccc(S(=O)(=O)N(CC(O)c2ccccc2)c2ccccc2F)cc1 (configuration not stated)
[1]
  GI50: 17.6 µM (inactive)
[2]
  GI50: 19.9 µM (inactive)
[3]
  GI50: 15.4 µM (inactive)
[4]
  GI50: 16.1 µM (inactive)
[5]
  GI50: 35.6 µM (inactive)
[6]
  GI50: 24.2 µM (inactive)
[7]
  GI50: 16.9 µM (inactive)
[8]
  GI50: 18.2 µM (inactive)
[10]
  GI50: 20.7 µM (inactive)
[11]
  GI50: 11.3 µM (inactive)
[12]
  GI50: 13.5 µM (inactive)
[13]
  GI50: 19.3 µM (inactive)
[14]
  GI50: 17 µM (inactive)
[15]
  GI50: 17.5 µM (inactive)
[16]
  GI50: 15.9 µM (inactive)
[17]
  GI50: 18 µM (inactive)
[18]
  GI50: 19.7 µM (inactive)
[19]
  GI50: 12.2 µM (inactive)

## C/C(=N\NC(=S)Nc1ccccc1)c1nc2cccnc2[nH]1
[1]
  GI50: 2.54 µM (inactive)
[2]
  GI50: 8.17 µM (inactive)
[3]
  GI50: 3.78 µM (inactive)
[4]
  GI50: 2.84 µM (inactive)
[5]
  GI50: 0.649 µM (active)
[6]
  GI50: 2.91 µM (inactive)
[7]
  GI50: 14 µM (inactive)
[8]
  GI50: 1.06 µM (active)
[9]
  GI50: 0.706 µM (active)
[10]
  GI50: 2.59 µM (inactive)
[11]
  GI50: 0.456 µM (active)
[12]
  GI50: 0.927 µM (active)
[13]
  GI50: 2.76 µM (inactive)
[14]
  GI50: 3.75 µM (inactive)
[15]
  GI50: 3.46 µM (inactive)
[16]
  GI50: 2.69 µM (inactive)
[17]
  GI50: 5.96 µM (inactive)
[19]
  GI50: 2.85 µM (inactive)

## COc1cc([C@@H]2c3cc4c(cc3[C@@H](Nc3ccc(NC(=O)c5cc(NC(=O)c6cc([N+](=O)[O-])cn6C)cn5C)cc3)[C@H]3COC(=O)[C@H]23)OCO4)cc(OC)c1O
[1]
  GI50: 0.593 µM (active)
[2]
  GI50: 1.35 µM (inactive)
[3]
  GI50: 2.31 µM (inactive)
[4]
  GI50: 0.374 µM (active)
[5]
  GI50: > 40.1 µM (inactive)
[6]
  GI50: 6.04 µM (inactive)
[7]
  GI50: > 48.4 µM (inactive)
[8]
  GI50: > 38.8 µM (inactive)
[9]
  GI50: < 0.0209 µM (active)
[10]
  GI50: 0.334 µM (active)
[11]
  GI50: > 49.4 µM (inactive)
[12]
  GI50: > 43.7 µM (inactive)
[13]
  GI50: 0.76 µM (active)
[14]
  GI50: 0.0324 µM (active)
[15]
  GI50: 1.57 µM (inactive)
[16]
  GI50: 0.188 µM (active)
[17]
  GI50: 15.8 µM (inactive)
[18]
  GI50: > 65.8 µM (inactive)
[19]
  GI50: 0.453 µM (active)

## CCOC(=O)c1ccc(Nc2nc3ccccc3nc2C(=O)OCC)cc1
[1]
  GI50: 57.7 µM (inactive)
[3]
  GI50: > 100 µM (inactive)
[4]
  GI50: > 100 µM (inactive)
[5]
  GI50: > 100 µM (inactive)
[6]
  GI50: > 100 µM (inactive)
[7]
  GI50: 59.6 µM (inactive)
[8]
  GI50: > 100 µM (inactive)
[9]
  GI50: > 100 µM (inactive)
[11]
  GI50: > 100 µM (inactive)
[12]
  GI50: > 100 µM (inactive)
[13]
  GI50: > 100 µM (inactive)
[14]
  GI50: 85.9 µM (inactive)
[16]
  GI50: > 100 µM (inactive)
[17]
  GI50: > 100 µM (inactive)
[18]
  GI50: > 100 µM (inactive)
[19]
  GI50: > 100 µM (inactive)

## Cc1n2nc(N)sc2n[n+]1Cc1ccccc1
[1]
  GI50: > 100 µM (inactive)
[2]
  GI50: > 100 µM (inactive)
[3]
  GI50: 21.4 µM (inactive)
[4]
  GI50: > 100 µM (inactive)
[5]
  GI50: 97.5 µM (inactive)
[7]
  GI50: > 100 µM (inactive)
[9]
  GI50: > 100 µM (inactive)
[10]
  GI50: > 100 µM (inactive)
[11]
  GI50: 89.9 µM (inactive)
[12]
  GI50: > 100 µM (inactive)
[13]
  GI50: > 100 µM (inactive)
[14]
  GI50: > 100 µM (inactive)
[20]
  GI50: > 100 µM (inactive)
[15]
  GI50: > 100 µM (inactive)
[16]
  GI50: 49.5 µM (inactive)
[17]
  GI50: > 100 µM (inactive)
[18]
  GI50: > 100 µM (inactive)
[19]
  GI50: 47.4 µM (inactive)

## COc1ccc(P2(=S)OC(C)(C)C(C)(C)O2)cc1
[1]
  GI50: > 100 µM (inactive)
[4]
  GI50: > 100 µM (inactive)
[5]
  GI50: > 100 µM (inactive)
[7]
  GI50: > 100 µM (inactive)
[8]
  GI50: > 100 µM (inactive)
[9]
  GI50: > 100 µM (inactive)
[10]
  GI50: > 100 µM (inactive)
[11]
  GI50: > 100 µM (inactive)
[12]
  GI50: > 100 µM (inactive)
[13]
  GI50: > 100 µM (inactive)
[15]
  GI50: > 100 µM (inactive)
[16]
  GI50: > 100 µM (inactive)
[17]
  GI50: > 100 µM (inactive)
[18]
  GI50: > 100 µM (inactive)
[19]
  GI50: > 100 µM (inactive)
